Measured values: ChEMBL document CHEMBL5131375, “Recent Developments in the Use of Kinase Inhibitors for Management of Viral Infections” (J Med Chem, 2022)

Columns and labels:
[1] = system: Enterovirus A71; test: Antiviral activity against enterovirus A71 infected in human RD cells assessed as decrease in viral mRNA level at 2 uM; type: functional; set-up: scale not given: the % may be the effect or the level left
[2] = system: Enterovirus A71; test: Antiviral activity against enterovirus A71 infected in human HeLa cells assessed as decrease in viral mRNA level at 2 uM; type: functional; set-up: scale not given: the % may be the effect or the level left
[3] = in vitro; conditions: human
[4] = system: Enterovirus A71; test: Antiviral activity against enterovirus A71 infected in human RD cells assessed as decrease in viral titer by inhibition of Pim1; type: functional; set-up: scale not given: the % may be the effect or the level left
[5] = in vitro; conditions: human, hek-293t
[6] = system: Enterovirus A71; test: Antiviral activity against enterovirus A71 assessed as reduction in viral mRNA level at 2 uM relative to control; type: functional; set-up: scale not given: the % may be the effect or the level left
[7] = system: Enterovirus A71; test: Antiviral activity against enterovirus A71 infected in human HeLa cells assessed as decrease in viral titer by inhibition of Pim1; type: functional; set-up: scale not given: the % may be the effect or the level left
[8] = system: Human alphaherpesvirus 1; test: Antiviral activity against HSV-1-induced necrosis; type: functional, organism-based
[9] = system: Human alphaherpesvirus 1; test: Antiviral activity against HSV-1 KOS strain infected in 1 hr pretreated mouse L929 cells assessed as cell viability by cell titre-glo luminescent kit method; type: functional, organism-based; conditions: Human alphaherpesvirus 1, KOS
[10] = Cytotoxicity against 24ST1NLESG cells (unknown origin); type: toxicity, cell-based
[11] = system: dengue virus type 2; test: microbe, parasite or virus in culture; type: functional, organism-based
[12] = Cytotoxicity against microglia (unknown origin) cells; type: toxicity, cell-based
[13] = system: dengue virus type 2; test: Antiviral activity against DENV2 infected in hamster BHK-21 cells; type: functional
[14] = system: Human alphaherpesvirus 1; test: microbe, parasite or virus in culture; type: functional, organism-based
[15] = target: Cyclin-dependent kinase 9 (Homo sapiens, UniProt P50750); test: Inhibition of CDK9 (unknown origin) incubated for 2 hrs by measuring remaining ATP
[16] = system: Hepatitis B virus; test: Antiviral activity against HBV infected in human HepG2-hNTCP cells; type: functional, organism-based
[17] = system: Human alphaherpesvirus 1; test: Antiviral activity against ACV-resistant HSV-1 in African green monkey Vero cells measured after 2 days; type: functional, organism-based; conditions: Human alphaherpesvirus 1, Vero, 48 h
[18] = Cytotoxicity against human HepG2 cells; type: toxicity, cell-based
[19] = system: Hepatitis B virus; test: microbe, parasite or virus in culture; type: functional, organism-based; conditions: Hepatitis B virus
[20] = system: Human alphaherpesvirus 1; test: In vivo antiviral activity against HSV-1 infected in organism (unknown origin) assessed as suppression of skin lesions at 10% ointment treatment; type: functional
[21] = system: Zaire ebolavirus; test: microbe, parasite or virus in culture; type: functional, organism-based; conditions: dose 5 µM
[22] = Cytotoxicity against human PC-3 cells; type: toxicity, cell-based
[23] = Cytotoxicity against human MCF7 cells; type: toxicity, cell-based
[24] = target: Aurora kinase B (Homo sapiens, UniProt Q96GD4); test: Inhibition of aurora B kinase (unknown origin)
[25] = system: Zika virus; test: microbe, parasite or virus in culture
[26] = Cytotoxicity against human JEG-3 cells; type: toxicity, cell-based
[27] = in vitro; conditions: human, bxpc-3
[28] = system: Influenza A virus; test: microbe, parasite or virus in culture; type: functional, organism-based
[29] = Toxicity in mouse infected with Influenza A virus assessed as lethality at 75 mg/kg, po; type: organism-based; conditions: in vivo
[30] = system: Influenza A virus; test: microbe, parasite or virus in culture; type: functional, organism-based; remark: listed apart in the source
[31] = system: Ebolavirus; test: microbe, parasite or virus in culture; type: functional, organism-based; conditions: Orthoebolavirus
[32] = in vitro; conditions: chlorocebus sabaeus, Vero E6 cells
[33] = system: SARS-CoV-2; test: Antiviral activity against SARS-CoV-2 assessed as inhibition of viral replication; type: functional, organism-based; conditions: Severe acute respiratory syndrome coronavirus 2
[34] = system: Marburgvirus; test: microbe, parasite or virus in culture; type: functional, organism-based; conditions: Orthomarburgvirus, MDM
[35] = system: Ebolavirus; test: microbe, parasite or virus in culture; type: functional, organism-based; conditions: Orthoebolavirus, MDM
[36] = system: SARS-CoV-2; test: Antiviral activity against SARS-Cov-2 infected in 1 hr pretreated African green monkey Vero E6 cells assessed as inhibition of viral replication; type: functional, organism-based; conditions: Severe acute respiratory syndrome coronavirus 2, Vero C1008
[37] = system: Marburgvirus; test: microbe, parasite or virus in culture; type: functional, organism-based; conditions: Orthomarburgvirus
[38] = system: SARS-CoV-2; test: microbe, parasite or virus in culture; type: functional, organism-based; conditions: Severe acute respiratory syndrome coronavirus 2
[39] = system: Lassa virus; test: microbe, parasite or virus in culture; type: functional, organism-based; conditions: Mammarenavirus lassaense, A549
[40] = system: Zika virus; test: Antiviral activity against ZIKV-PRVABC59 infected in human Huh-7 cells measured after 24 hrs; type: functional, organism-based; conditions: PRVABC59, Huh-7, 24 h
[41] = system: Ebolavirus; test: microbe, parasite or virus in culture; type: functional, organism-based; conditions: Orthoebolavirus; remark: listed apart in the source
[42] = in vitro; conditions: human, Huh-7 cells
[43] = system: Nipah virus; test: microbe, parasite or virus in culture; type: functional, organism-based; conditions: Henipavirus nipahense
[44] = system: Nipah virus; test: microbe, parasite or virus in culture; type: functional, organism-based, HEK293T; conditions: Henipavirus nipahense, HEK-293T
[45] = system: Ebolavirus; test: microbe, parasite or virus in culture; type: functional, organism-based; conditions: Orthoebolavirus, Huh-7
[46] = system: Zika virus; test: Antiviral activity against ZIKV-PRVABC59 infected in Neuronal cell line measured after 24 hrs; type: functional, organism-based
[47] = system: Marburgvirus; test: microbe, parasite or virus in culture; type: functional, organism-based; conditions: Orthomarburgvirus; remark: listed apart in the source
[48] = system: Marburgvirus; test: microbe, parasite or virus in culture; type: functional, organism-based; conditions: Orthomarburgvirus, Huh-7
[49] = in vitro; conditions: human, sertoli cell
[50] = system: Zika virus; test: Antiviral activity against ZIKV at 1 uM relative to control; type: functional
[51] = system: Human immunodeficiency virus; test: Antiviral activity against HIV p24 assessed as extracellular antigen accumulation in primary macrophage at 25 uM; type: functional
[52] = system: Mammarenavirus choriomeningitidis; type: functional; conditions: dose 0.5-5 µM

Cyclin-dependent kinase 9, sequence (P50750 whole entry): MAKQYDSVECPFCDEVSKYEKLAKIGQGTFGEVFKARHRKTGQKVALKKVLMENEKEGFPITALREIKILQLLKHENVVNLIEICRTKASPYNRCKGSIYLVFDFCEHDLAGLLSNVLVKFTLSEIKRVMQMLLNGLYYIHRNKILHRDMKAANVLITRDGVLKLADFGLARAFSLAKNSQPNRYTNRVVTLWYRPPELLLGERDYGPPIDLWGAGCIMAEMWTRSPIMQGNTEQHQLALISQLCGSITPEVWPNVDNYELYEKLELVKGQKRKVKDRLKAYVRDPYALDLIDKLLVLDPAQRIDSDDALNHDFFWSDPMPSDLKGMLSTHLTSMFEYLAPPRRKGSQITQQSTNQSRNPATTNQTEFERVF
Aurora kinase B, sequence (Q96GD4 whole entry): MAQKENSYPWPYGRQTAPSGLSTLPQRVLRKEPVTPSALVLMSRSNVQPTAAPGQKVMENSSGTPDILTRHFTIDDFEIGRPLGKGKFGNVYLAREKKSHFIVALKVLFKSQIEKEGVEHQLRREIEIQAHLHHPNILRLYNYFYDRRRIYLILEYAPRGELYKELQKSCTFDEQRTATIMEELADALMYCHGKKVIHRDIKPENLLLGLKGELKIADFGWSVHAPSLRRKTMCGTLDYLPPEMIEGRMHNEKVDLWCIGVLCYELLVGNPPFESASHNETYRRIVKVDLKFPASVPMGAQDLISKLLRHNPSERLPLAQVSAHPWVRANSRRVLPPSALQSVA

In the case of `CN1CCCN(C(=O)c2cccc(-c3ccc(/C=C4/C(=O)Nc5ccc(Cl)cc54)o3)c2)CC1`, the Activity [1] is reported as 70%, the Activity [2] is reported as 70% and the CC50 ([3]; hela) is reported as > 8000 nM. For the same compound, the Activity [4] was 50%, the CC50 [5] was > 8000 nM and the Activity [6] was 70%. For the same compound, the Activity [7] was 50%.

`O=C1NCCc2[nH]c(-c3ccncc3)cc21` gave an IC50 [8] of 1860 nM, an IC50 [9] of 1860 nM and a CC50 [10] of 1000 nM.

In the case of `NC(=O)c1cccc(-c2cc(Nc3ccc(OC(F)(F)F)cc3)ncn2)c1`, the IC50 [11] is reported as 15000 nM, the CC50 [12] is reported as 20000 nM and the IC90 [13] is reported as 15000 nM.

In the case of `Fc1ccc(N2CCCCC2)c(NC(=S)c2ccncc2)c1`, the EC50 [14] is reported as 690 nM, the CC50 ([3]; HeLa cells) is reported as > 10000 nM and the IC50 [15] is reported as 5800 nM. For the same compound, the IC50 [16] was 330 nM, the IC50 [17] was 690 nM and the CC50 [18] was > 50000 nM. For the same compound, the EC50 [19] was 330 nM and the Activity [20] was 100%.

In the case of `Ic1cccc(/C=N/Nc2nc(N3CCOCC3)nc(N(c3ccccc3)c3ccccc3)n2)c1`, the inhibition at 5 µM [21] is reported as 100%, the CC50 [22] is reported as > 10000 nM and the CC50 [23] is reported as > 10000 nM.

In the case of `c1cncc(CN2CCC(n3ncc4c(N5CCOCC5)nc(-c5ccc6[nH]ccc6c5)nc43)CC2)c1`, the IC50 [24] is reported as 250 nM, the EC50 [25] is reported as 2280 nM and the IC50 [25] is reported as 2300 nM. The CC50 [26] was > 10000 nM.

With `O=C(NCc1ccncc1)C12CC3CC(C1)CC(c1ccc(Cl)cc1)(C3)C2` [ABC-294640] the CC50 [27] was 28500 nM, the EC50 [28] was 1780 nM and the Activity [29] was “Non-Toxic”. It also gave an EC50 [30] of 1780 nM.

For `Cc1cccc(/C=N/Nc2cc(N3CCOCC3)nc(OCCc3ccccn3)n2)c1` [APILIMOD], the EC50 [31] was 10 nM, the CC50 [32] was > 1000 nM and the EC50 [33] was 23 nM. The IC50 [34] was 10 nM, the IC50 [35] was 10 nM and the EC50 [36] was 23 nM. The EC50 [37] was 10 nM and the EC50 [38] was 23 nM.

With `NCC(=O)Nc1ccc(-n2nc(C(F)(F)F)cc2-c2ccc3c(ccc4ccccc43)c2)cc1` [AR-12] the EC50 [39] was 500 nM, the IC50 [40] was 2000 nM and the EC50 [41] was 300 nM. The CC50 [42] was > 10000 nM, the IC50 [25] was < 2000 nM and the EC50 [43] was 300 nM. For the same compound, the EC50 [44] was 300 nM, the EC50 [45] was 300 nM and the IC50 [46] was 2000 nM. For the same compound, the EC50 [47] was 300 nM and the EC50 [48] was 300 nM.

For `Nc1nc(Nc2ccc3c(c2)CC[C@@H](N2CCCC2)CC3)nn1-c1cc2c(nn1)-c1ccccc1CCC2` [BEMCENTINIB], the CC50 [49] was > 10000 nM and the Activity [50] was 75%.

With `Cn1c(=O)n(-c2ccc(C(C)(C)C#N)cc2)c2c3cc(-c4cnc5ccccc5c4)ccc3ncc21` [DACTOLISIB] the Activity [51] was 83%, the CC50 [5] was > 5000 nM and the “log(activity)” value [52] was 2.
